Format in all cases: cell-based
The target of experiment [1] is T1, F876L mutant Androgen Receptor (AR-F876L) (Homo sapiens, UniProt P10275, F877L).
T1 construct: expressed in transfected cells; host or cells: LNCaP (LNCaP F876L)
T1 sequence (P10275 1-920 F877L): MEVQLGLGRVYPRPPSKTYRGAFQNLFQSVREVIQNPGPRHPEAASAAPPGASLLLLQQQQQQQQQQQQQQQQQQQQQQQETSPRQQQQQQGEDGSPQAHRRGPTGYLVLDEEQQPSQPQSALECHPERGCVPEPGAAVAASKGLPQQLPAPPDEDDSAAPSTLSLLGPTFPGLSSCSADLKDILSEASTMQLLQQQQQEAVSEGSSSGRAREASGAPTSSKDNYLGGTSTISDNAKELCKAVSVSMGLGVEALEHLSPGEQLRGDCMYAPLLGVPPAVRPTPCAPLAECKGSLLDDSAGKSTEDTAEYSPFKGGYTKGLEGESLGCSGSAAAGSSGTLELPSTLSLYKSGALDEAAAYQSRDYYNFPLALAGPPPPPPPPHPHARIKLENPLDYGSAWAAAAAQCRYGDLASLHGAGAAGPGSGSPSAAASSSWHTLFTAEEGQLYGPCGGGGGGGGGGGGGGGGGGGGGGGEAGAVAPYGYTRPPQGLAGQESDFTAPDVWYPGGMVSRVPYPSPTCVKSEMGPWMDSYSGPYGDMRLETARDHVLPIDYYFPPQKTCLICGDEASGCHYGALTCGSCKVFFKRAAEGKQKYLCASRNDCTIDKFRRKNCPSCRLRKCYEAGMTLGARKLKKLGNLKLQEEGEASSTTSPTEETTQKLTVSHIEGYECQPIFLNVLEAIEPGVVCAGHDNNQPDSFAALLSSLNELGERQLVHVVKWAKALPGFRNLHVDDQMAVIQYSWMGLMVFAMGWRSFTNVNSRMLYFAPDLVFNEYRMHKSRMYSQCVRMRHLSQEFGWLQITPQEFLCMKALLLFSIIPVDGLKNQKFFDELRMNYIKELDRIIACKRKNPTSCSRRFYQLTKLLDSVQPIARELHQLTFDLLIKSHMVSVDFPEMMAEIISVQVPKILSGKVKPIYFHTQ
Briefly: LNCaP-AR-F876L ANT reporter assay (ARE firefly luciferase, antagonist mode). Particulars: for Emax: maximum % inhibition of R1881 control response over tested concentration range, read-out: LNCaP-AR-F876L ANT MAX % Inh; for IC50: read-out: LNCaP-AR-F876L ANT pIC50 (converted). In a few lines:
(§1)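 Cells: stable LNCaP pools, AR-wt or AR-F876L, in charcoal-stripped serum. Agonist challenge for antagonist mode was 400 pM (WT) and 600 pM (F876L). Luminescence was measured after 20-24 h incubation.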
In general terms: In a reporter assay the amount or activity of a reporter protein is the signal.

Experiment [2] concerns the target T1, F876L mutant Androgen Receptor (AR-F876L). The experiment can be described thus: LNCaP-AR-F876L AG reporter assay (ARE firefly luciferase, agonist mode). Particulars: for EC50: agonist mode, −Log10(EC50 [Molar]), read-out: LNCaP-AR-F876L AG pEC50 (converted); for Emax: maximum % stimulation (agonist response) over tested concentration range, read-out: LNCaP-AR-F876L AG MAX % Stim. The method, boiled down:
(§2)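 LNCaP stable pooled lines expressing ARE-firefly luciferase, in charcoal-stripped serum medium, were exposed to compounds; antagonist mode used agonist at 400 pM (WT) or 600 pM (F876L).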

The target of experiment [3] is T2, wild-type Androgen Receptor (AR-wt) (Homo sapiens, UniProt P10275).
T2 construct: expressed in transfected cells; host or cells: LNCaP (LNCaP AR (cs))
T2 sequence (P10275 1-920): T1 sequence (P10275 1-920 F877L) with L877F
Briefly: LNCaP-AR-wt ANT reporter assay (ARE firefly luciferase, antagonist mode). The conditions noted are these: for IC50: antagonist mode, 400 pM R-1881 challenge, −Log10(IC50 [Molar]), read-out: LNCaP-AR-wt ANT pIC50 (converted); for Emax: maximum % inhibition of R1881 control response over tested concentration range, read-out: LNCaP-AR-wt ANT MAX % Inh. The method, boiled down: as §1

For experiment [4], the target named is T2, wild-type Androgen Receptor (AR-wt). The experiment can be described thus: LNCaP-AR-wt AG reporter assay (ARE firefly luciferase, agonist mode). Particulars: for EC50: agonist mode, −Log10(EC50 [Molar]), read-out: LNCaP-AR-wt AG pEC50 (converted); for Emax: maximum % stimulation (agonist response) over tested concentration range, read-out: LNCaP-AR-wt AG MAX % Stim. In a few lines:
as §2

Molecules are shown by their SMILES. Changes are numbered by the printed parent chain.

As for `N#Cc1ncc(N2C(=O)C3(CCC3)N(c3ccc(OC4CCNCC4)cc3)C2=S)cc1C(F)(F)F` [Cpd 35, 5-[5-oxo-8-[4-(4-piperidyloxy)phenyl]-7-thioxo-6,8-diazaspiro[3.4]octan-6-yl]-3-(trifluoromethyl)pyridine-2-carbonitrile], the Emax in experiment [1] was 101%; in experiment [2], 0%; in experiment [3], 97.5%; in experiment [4] it was -0.1%. In addition, the results for the IC50 in experiment [1] and in experiment [3] were 0.145 µM and 0.24 µM, respectively. Also, the EC50 in experiment [2] and in experiment [4] was over 15.1 µM throughout.
For the molecule `N#Cc1ncc(N2C(=O)C3(CCC3)N(c3ccc(C(=O)NCCCO)c(F)c3)C2=S)cc1C(F)(F)F` [Cpd 40, 4-[6-[6-cyano-5-(trifluoromethyl)-3-pyridyl]-5-oxo-7-thioxo-6,8-diazaspiro[3.4]octan-8-yl]-2-fluoro-N-(3-hydroxypropyl)benzamide], the Emax in experiment [1] is 99.5%; in experiment [2] it was 0.2%; in experiment [3], 101%; in experiment [4] it was -0.3%. In addition, the values for the IC50 in experiment [1] and in experiment [3] were 0.162 µM and 0.24 µM, respectively. The EC50 in experiment [2] and in experiment [4] was over 15.1 µM each time.
For `CN1CCC(Oc2ccc(N3C(=S)N(c4cnc(C#N)c(C(F)(F)F)c4)C(=O)C34CCC4)cc2)CC1` [Cpd 85, 5-[8-[4-[(1-methyl-4-piperidyl)oxy]phenyl]-5-oxo-7-thioxo-6,8-diazaspiro[3.4]octan-6-yl]-3-(trifluoromethyl)pyridine-2-carbonitrile], the Emax was determined as 99.8% in experiment [1], 0.8% in experiment [2], 101% in experiment [3] and 0.2% in experiment [4].

Source of the values: US20180008587A1, “THIOHYDANTOIN ANDROGEN RECEPTOR ANTAGONISTS FOR THE TREATMENT OF CANCER” (Jaressen Pharmaceutica NV, priority 2016, published 2018).
